These results are taken from patent publication US10736932B2, “Small molecule Ras inhibitors” (Ohio State Innovation Foundation, priority 2014, dated 2020).

One may read the Kd as the free concentration of one partner at which half of the binding sites on the other are occupied at equilibrium, for simple one-to-one binding.

Read-outs that look alike come from different tables or passages of the source. Square brackets hold non-standard residues; d marks the D form. Peptide text beside a SMILES is read from it. * marks the point of attachment. Lys(5-FITC)NH2 = NC(=O)[C@H](CCCCNC(=S)Nc1ccc2c(c1)C(=O)OC21c2ccc(O)cc2Oc2cc(O)ccc21)N*; FITC = O=C1OC2(c3ccc(O)cc3Oc3cc(O)ccc32)c2ccc(NC(=S)*)cc21; Phe(4-F) = N[C@@H](Cc1ccc(F)cc1)C(=O)O; d2Nal = N[C@H](Cc1ccc2ccccc2c1)C(=O)O; Isonicotinoyl = O=C(c1ccncc1)*; Phg = N[C@H](C(=O)O)c1ccccc1; Tle = CC(C)(C)[C@H](N)C(=O)O; X2 = O=C(C=Cc1ccc(Cl)cc1)*; X5 = O=C(c1cc(F)cc(Br)c1)*; X4 = O=C(c1ccc(Cl)nc1)*; Dap = NC[C@H](N)C(=O)O; Bn = c1ccc(C*)cc1 Some results are limits rather than exact numbers.

The target in the assay is T1, K-Ras(G12V) (Homo sapiens, UniProt P01116, G12V).
T1 construct: The G12V mutant K-Ras (amino acids 1-185) was recombinantly fused; GST (N, cleaved yes); made in house; host or cells: Escherichia coli BL21
The experiment in a line: Fluorescence anisotropy (FA) binding of FITC-labeled cyclic peptides to K-Ras. Background: Fluorescence polarisation rises when a labelled molecule tumbles more slowly, as on binding a larger partner.

Setting [1] is: Table 2, FITC-labeled peptide, read-out: Binding affinity KD.
[2] abbreviates: Table 1, resynthesized FITC-labeled peptides, FA, K-Ras, read-out: KD.

T1 sequence (P01116 1-185 isoform P01116-2 G12V): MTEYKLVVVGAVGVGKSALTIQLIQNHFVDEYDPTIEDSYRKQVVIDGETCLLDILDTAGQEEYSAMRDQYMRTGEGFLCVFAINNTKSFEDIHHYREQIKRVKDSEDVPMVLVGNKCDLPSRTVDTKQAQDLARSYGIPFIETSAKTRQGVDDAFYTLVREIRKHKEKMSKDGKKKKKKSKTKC
Description: The 13 hits were resynthesized, labeled with fluorescein isothiocyanate (FITC), purified by HPLC, and tested for binding to K-Ras by fluorescence anisotropy (FA).
For cyclic peptides derived from single library beads (library screening), K-Ras protein (non-GST fusion, 0-20 μM) was incubated with the TMR-labeled peptide (50 or 100 nM) in 20 μL of the blocking buffer for 2.5 h at 24° C. The FA values were measured on a Molecular Devices Spectramax M5 spectrofluorimeter, with excitation and emission wavelengths at 545 and 585 nm, respectively. Equilibrium dissociation constants (KD) were determined by plotting the FA values as a function of K-Ras concentration and fitting the data to the equation
[formula] where Y is the measured anisotropy at a given K-Ras concentration x; L is the peptide concentration; Qb/Qf is the correction fact for dye-protein interaction; Amax is the maximum anisotropy at saturating K-Ras concentration; and Amin is the minimum anisotropy. FA analyses with resynthesized FITC-labeled peptides were similarly carried out, except that the excitation and emission wavelengths were at 494 and 520 nm, respectively.

Take `C[C@H]1NC(=O)[C@H](C(C)(C)C)NC(=O)[C@H]([C@@H](C)OCc2ccccc2)NC(=O)[C@H](CCC(N)=O)NC(=O)[C@@H](CCCCN)NC(=O)[C@H](Cc2ccc(F)cc2)NC(=O)[C@H](CCCNC(=N)N)NC(=O)[C@@H](Cc2ccc3ccccc3c2)NC(=O)[C@H](CCCCNC(=S)Nc2ccc3c(c2)C(=O)OC32c3ccc(O)cc3Oc3cc(O)ccc32)NC(=O)[C@H](CCCNC(=N)N)NC(=O)[C@H](CCCNC(=N)N)NC1=O` [Cyclorasin 9A26, (Thr(Bzl)-Tle-ala-Arg-Arg-Lys(FITC)-nal-Arg-Fpa-lys-Gln)] (cyclo(K(FITC)[d2Nal]R[Phe(4-F)][dK]QT(Bn)[Tle][dA]RR)): the Kd under setting [1] was determined as 710 ± 70 nM.

Consider `C[C@@H](O)[C@@H]1NC(=O)[C@H](Cc2ccc(O)cc2)NC(=O)[C@@H](CC(N)=O)NC(=O)[C@H](Cc2ccc(F)cc2)NC(=O)[C@H](CCCNC(=N)N)NC(=O)[C@@H](Cc2ccc3ccccc3c2)NC(=O)[C@H](CCCNC(=N)N)NC(=O)[C@H](CCCNC(=N)N)NC(=O)[C@H](CCC(=O)N[C@@H](CCCCNC(=S)Nc2ccc3c(c2)C(=O)OC32c3ccc(O)cc3Oc3cc(O)ccc32)C(N)=O)NC(=O)[C@@H](CC(N)=O)NC1=O` [Cyclorasin 2A, (Arg-Arg-nal-Arg-Fpa-asn-Tyr-Thr-asn-Gln)] (cyclo(RR[d2Nal]R[Phe(4-F)][dN]YT[dN]E(Lys(5-FITC)NH2))), for which, under setting [2], the dissociation constant (Kd) was over 10000 nM.

Regarding `C[C@H]1NC(=O)[C@H](C(C)(C)C)NC(=O)[C@H](Cc2c[nH]c3ccccc23)NC(=O)[C@H](CCC(N)=O)NC(=O)[C@@H](CCCCN)NC(=O)[C@H](Cc2ccc(F)cc2)NC(=O)[C@H](CCCNC(=N)N)NC(=O)[C@@H](Cc2ccc3ccccc3c2)NC(=O)[C@H](CCCCNC(=S)Nc2ccc3c(c2)C(=O)OC32c3ccc(O)cc3Oc3cc(O)ccc32)NC(=O)[C@H](CCCNC(=N)N)NC(=O)[C@H](CCCNC(=N)N)NC1=O` [Cyclorasin 9A31, (Trp-Tle-ala-Arg-Arg-Lys(FITC)-nal-Arg-Fpa-lys-Gln)] (cyclo(K(FITC)[d2Nal]R[Phe(4-F)][dK]QW[Tle][dA]RR)), the Kd under setting [1] was 110 ± 10 nM.

For `C[C@H]1NC(=O)[C@H](C(C)(C)C)NC(=O)[C@H](Cc2c[nH]c3ccccc23)NC(=O)[C@H](CCC(N)=O)NC(=O)[C@@H](CCCCNC(=O)C=Cc2ccc(Cl)cc2)NC(=O)[C@H](Cc2ccc(F)cc2)NC(=O)[C@H](CCCNC(=N)N)NC(=O)[C@@H](Cc2ccc3ccccc3c2)NC(=O)[C@H](CCCCNC(=S)Nc2ccc3c(c2)C(=O)OC32c3ccc(O)cc3Oc3cc(O)ccc32)NC(=O)[C@H](CCCNC(=N)N)NC(=O)[C@H](CCCNC(=N)N)NC1=O` [Cyclorasin 9A34, (Trp-Tle-ala-Arg-Arg-Lys(FITC)-nal-Arg-Fpa-lys(4-chlorocinnamoyl)-Gln)] (cyclo(K(FITC)[d2Nal]R[Phe(4-F)][dK](X2)QW[Tle][dA]RR)), under setting [1], the Kd is over 20000 nM.

In the case of `C[C@H]1NC(=O)[C@H](C(C)(C)C)NC(=O)[C@H](CNC(=O)c2ccc(Cl)nc2)NC(=O)[C@H](CCC(N)=O)NC(=O)[C@@H](CCCCN)NC(=O)[C@H](Cc2ccc(F)cc2)NC(=O)[C@H](CCCNC(=N)N)NC(=O)[C@@H](Cc2ccc3ccccc3c2)NC(=O)[C@H](CCCCNC(=S)Nc2ccc3c(c2)C(=O)OC32c3ccc(O)cc3Oc3cc(O)ccc32)NC(=O)[C@H](CCCNC(=N)N)NC(=O)[C@H](CCCNC(=N)N)NC1=O` [Cyclorasin 9A27, (Dap(6-chloronicotinoyl)-Tle-ala-Arg-Arg-Lys(FITC)-nal-Arg-Fpa-lys-Gln)] (cyclo([Dap](X4)[Tle][dA]RRK(FITC)[d2Nal]R[Phe(4-F)][dK]Q)), the Kd under setting [1] worked out at 1000 ± 100 nM.

Regarding `C[C@H]1NC(=O)[C@H](C(C)(C)C)NC(=O)[C@H](Cc2c[nH]c3ccccc23)NC(=O)[C@H](CCC(N)=O)NC(=O)[C@@H](CCCCNC(=O)c2cc(F)cc(Br)c2)NC(=O)[C@H](Cc2ccc(F)cc2)NC(=O)[C@H](CCCNC(=N)N)NC(=O)[C@@H](Cc2ccc3ccccc3c2)NC(=O)[C@H](CCCCNC(=S)Nc2ccc3c(c2)C(=O)OC32c3ccc(O)cc3Oc3cc(O)ccc32)NC(=O)[C@H](CCCNC(=N)N)NC(=O)[C@H](CCCNC(=N)N)NC1=O` [Cyclorasin 9A32, (Trp-Tle-ala-Arg-Arg-Lys(FITC)-nal-Arg-Fpa-lys(3-bromo-5-fluorobenzoyl)-Gln)] (cyclo(K(FITC)[d2Nal]R[Phe(4-F)][dK](X5)QW[Tle][dA]RR)), under setting [1], the Kd was over 20000 nM.

On to `C[C@H]1NC(=O)[C@H](C(C)(C)C)NC(=O)[C@H](CNC(=O)c2ccncc2)NC(=O)[C@H](CCC(N)=O)NC(=O)[C@@H](CCCCN)NC(=O)[C@H](Cc2ccc(F)cc2)NC(=O)[C@H](CCCNC(=N)N)NC(=O)[C@@H](Cc2ccc3ccccc3c2)NC(=O)[C@H](CCCCNC(=S)Nc2ccc3c(c2)C(=O)OC32c3ccc(O)cc3Oc3cc(O)ccc32)NC(=O)[C@H](CCCNC(=N)N)NC(=O)[C@H](CCCNC(=N)N)NC1=O` [Cyclorasin 9A29, (Dap(isonicotinoyl)-Tle-ala-Arg-Arg-Lys(FITC)-nal-Arg-Fpa-lys-Gln)] (cyclo([Dap](Isonicotinoyl)[Tle][dA]RRK(FITC)[d2Nal]R[Phe(4-F)][dK]Q)), for which, under setting [1], the Kd came out at 1200 ± 100 nM.

As to `C[C@H]1NC(=O)[C@H](C(C)(C)C)NC(=O)[C@H](Cc2c[nH]c3ccccc23)NC(=O)[C@H](CCC(N)=O)NC(=O)[C@@H](CCCCNC(=O)c2ccncc2)NC(=O)[C@H](Cc2ccc(F)cc2)NC(=O)[C@H](CCCNC(=N)N)NC(=O)[C@@H](Cc2ccc3ccccc3c2)NC(=O)[C@H](CCCCNC(=S)Nc2ccc3c(c2)C(=O)OC32c3ccc(O)cc3Oc3cc(O)ccc32)NC(=O)[C@H](CCCNC(=N)N)NC(=O)[C@H](CCCNC(=N)N)NC1=O` [Cyclorasin 9A35, (Trp-Tle-ala-Arg-Arg-Lys(FITC)-nal-Arg-Fpa-lys(isonicotinoyl)-Gln)] (cyclo(W[Tle][dA]RRK(FITC)[d2Nal]R[Phe(4-F)][dK](Isonicotinoyl)Q)), the Kd under setting [1] was over 20000 nM.

With `N=C(N)NCCC[C@@H]1NC(=O)[C@H](CCC(=O)N[C@@H](CCCCNC(=S)Nc2ccc3c(c2)C(=O)OC32c3ccc(O)cc3Oc3cc(O)ccc32)C(N)=O)NC(=O)[C@@H](Cc2ccccc2)NC(=O)[C@@H](CO)NC(=O)[C@H](Cc2ccc(O)cc2)NC(=O)[C@H](c2ccccc2)NC(=O)[C@H](Cc2ccc(F)cc2)NC(=O)[C@H](CCCNC(=N)N)NC(=O)[C@@H](Cc2ccc3ccccc3c2)NC(=O)[C@H](CCCNC(=N)N)NC1=O` [Cyclorasin 8A, (Arg-Arg-nal-Arg-Fpa-Phg-Tyr-ser-phe-Gln)] (cyclo(RR[d2Nal]R[Phe(4-F)][Phg]Y[dS][dF]E(Lys(5-FITC)NH2))), the Kd under setting [2] was over 10000 nM.

As to `C[C@H]1NC(=O)[C@H](C(C)(C)C)NC(=O)[C@H](CNC(=O)C=Cc2ccc(Cl)cc2)NC(=O)[C@H](CCC(N)=O)NC(=O)[C@@H](CCCCN)NC(=O)[C@H](Cc2ccc(F)cc2)NC(=O)[C@H](CCCNC(=N)N)NC(=O)[C@@H](Cc2ccc3ccccc3c2)NC(=O)[C@H](CCCCNC(=S)Nc2ccc3c(c2)C(=O)OC32c3ccc(O)cc3Oc3cc(O)ccc32)NC(=O)[C@H](CCCNC(=N)N)NC(=O)[C@H](CCCNC(=N)N)NC1=O` [Cyclorasin 9A28, (Dap(4-chlorocinnamoyl)-Tle-ala-Arg-Arg-Lys(FITC)-nal-Arg-Fpa-lys-Gln)] (cyclo([Dap](X2)[Tle][dA]RRK(FITC)[d2Nal]R[Phe(4-F)][dK]Q)), the equilibrium dissociation constant (Kd) under setting [1] was 160 ± 20 nM.
